Reference: US7387800B2, “Sesquiterpenoid derivatives having adipocyte differentiation inhibitory effect” (Meiji Dairies Corporation, priority 2001, dated 2008)

Test system: Mouse adipocyte precursors (3T3-L1)
Assay: Inhibition of insulin-induced adipocyte differentiation, acetic acid (14C-CH3COOH) incorporation activity as index
Type: cell-based
Conditions: 3T3-L1 differentiation into adipocytes; compound added with insulin; FIG. 4
Description: Whether Calea extract solution has an inhibitory activity on adipocyte differentiation induced by the addition of insulin was investigated. First, the aerial portion of Calea (170 g) was ground, and extracted by heated reflux using acetone (24 hours×2 times) to produce Calea extract solution. The extracted solution was filtered, and then concentrated under reduced pressure to yield a concentrated extract. Mouse adipocyte precursors (3T3-L1) obtained from Human Science Research Resources Bank was used as the adipocyte in the present experiment. Normal successive cultivation was performed using Dulbecco's modified Eagle MEM medium containing 10% calf serum (CS) at 37° C. in the presence of 5% CO2. […]
In the system where acetic acid incorporation activity was used as an index, first the cells were placed into a 24-well plate at a density of 4.2×10^4 cell/well. […] Using a liquid scintillation counter, radioactivity of the isopropanol fraction (adipose component) was measured. […] Then, protein quantification was performed according to the Bradford dye-binding method. […]

| SMILES | incorporation inhibitory activity (acetic acid incorporation), result in words |
| --- | --- |
| C=C(C)C(=O)O[C@H]1[C@H]2C(=C)C(=O)O[C@@H]2C[C@@H](C)[C@@H]2O[C@@H]2C(=O)[C@@](C)(O)[C@@H]1OC(=O)C(=C)C [compound 6] | high incorporation inhibitory activity |
| C=C(C)C(=O)O[C@H]1[C@H]2C(=C)C(=O)O[C@@H]2C[C@@H](C)/C=C\C(=O)[C@@](C)(O)[C@@H]1OC(=O)C(=C)C [compound 11] | high incorporation inhibitory activity |
